Experimental data reported in paper PMC2360332 (British Journal of Cancer, 2007).
Where two headings read alike, the source gives them in different places.

Experiments:
[1] = tested on: T47D human breast cancer cells; test: Growth of T47D human breast cancer cells in culture (7 days, viable cell count); type: cell-based; conditions: for Inhibition of basal (no E2) growth of T47D cells (in words): 10^−8 to 10^−5 M, data not shown; for Inhibition of E2-stimulated growth of T47D cells, single agent (in words): E2 10^−9 M added 1 h after agent, daily for 7 days, agent used alone, concentration–response in Figure 1A
Method: The MCF-7 cells were maintained in monolayer culture in Dulbecco's modification of Eagle's medium (DMEM) supplemented with 5% fetal bovine serum, glutamine (2 mM), nonessential amino acids (1%), and bovine insulin (1 μg ml^−1). The T47D human breast cancer cells were maintained in monolayer culture in RPMI-1640 medium supplemented with 10% fetal bovine serum, 100 IU ml^−1 penicillin, 100 μg ml^−1 streptomycin, 0.25 μg ml^−1 amphotericin B, and 8 μg ml^−1 bovine insulin in T-75 flasks with 2–3 medium changes per week. Cells were maintained at 37°C in an atmosphere of 5% CO2, 95% air. To evaluate the oestrogen-stimulated growth of these cells, they were released from monolayer using 0.25% trypsin/0.53 mM EDTA and suspended in oestrogen-free medium comprised of DMEM (high glucose, phenol red-free), supplemented with 10% charcoal-stripped bovine calf serum, 2 mM glutamine, 100 IU ml^−1 penicillin, and 100 μg ml^−1 streptomycin. One millilitre containing 1.2 × 10^5 cells was seeded into each well of a 24-well plate coated with collagen IV (BD Biosciences, Bedford, MA, USA). […] Control wells received the vehicle. Medium was changed every other day before treatment. One day after the last treatment, cells were trypsinised and resuspended in oestrogen-free medium, and counted using a haemacytometer following dilution with trypan blue. Viable cell number is reported.
T47D (1 × 10^5) cells were seeded into wells of collagen-coated plates in oestrogen-free medium. Medium was changed daily. Twenty-four hours after seeding, AFPep and/or Tam were added. One hour later E2 (10^−9 M) was added. Cells were treated daily for 7 days after which cells were harvested and counted in a hemacytometer. Mean viable cell number of six replicate wells ±s.e. was determined. (A) Concentration–response curve of each agent alone. Inhibition (%) of E2-stimulated growth is reported. (▪) Tam; (▴) AFPep. […] Mean viable cell number is reported.

[2] = tested on: MCF-7 human breast cancer xenografts; test: MCF-7 human breast cancer xenograft under kidney capsule of SCID mice; type: in vivo, human (cells), SCID mice (host); conditions: E2 supplementation, five mice per group
Text: Ten million MCF-7 human breast cancer cells were harvested from culture, centrifuged into a pellet, solidified into a fibrin clot, and implanted under the kidney capsule of SCID mice as described previously ([Bennett et al, 1985], [2002], [2006]; [Mesfin et al, 2001]; [Parikh et al, 2005]). Oestrogen supplementation was accomplished by s.c. implantation of a 5 mm silastic tubing capsule containing solid E2 inserted on the day of tumour implantation. […] The tumour-bearing kidney was exposed during survival laparotomy at 14 and 28 days after implantation and tumour size was measured using a dissecting microscope equipped with an ocular micrometer, noting the long (D) and short (d) diameters of the tumour. Five replicate mice were included in each treatment group. Mean tumour volume (0.52d^2D) was calculated for each group, and used for display of growth curves. Significance of differences between groups was tested using the one-sided Wilcoxon rank sum test.
Pieces of MCF-7 tumour were implanted under the kidney capsule of SCID mice. Oestradiol was provided via an E2-containing silastic tubing subcutaneous implant.

[3] = Toxicity in MNU-exposed rats (body weight, organ weights, fur texture, cage activity); type: in vivo, Sprague–Dawley rats; conditions: for Body weight / Uterine weight / Heart weight: 20 days; for Body weight: control 283±30; for Uterine weight: control 0.54±0.15; for Heart weight: control 1.10±0.14
Text: [Swanson et al, 1997]). […] In the therapy model (human tumour xenografts growing in mice) and in the prevention model (MNU-induced mammary cancers in rats), the toxicity of […]

[4] = tested on: immature mouse uterus; test: Immature mouse uterine growth assay; type: in vivo, Swiss mice; conditions: uteri harvested 22 h later, five mice per group; for Growth of immature mouse uterus (in words): single agent i.p., Tam 1 μg or AFPep 10 μg
Text: Control mice received the vehicle. Twenty-two hours later, uteri were harvested, trimmed free of connective tissue, and weighed. Uterine weights were normalised to donor mouse body weight. There were five replicate mice per group.
Twenty-two hours after treatment, uteri were harvested, weighed, and normalised to mouse body weight.

[5] = tested on: oestrogen receptor (ER); test: Inhibition of binding of [^3H]E2 to oestrogen receptor (rabbit uterine cytosol); conditions: rabbit uterine cytosol 2.5 mg protein ml^−1, 20 μl of 10 nM 6,7-[^3H]E2, overnight at 4°C, pH 7.4, dextran-coated charcoal; triplicate
Method: Rabbit uteri (Pel-Freez Biological, Rogers, AR, USA) were used as a source of ER. Uteri were pulverised in a stainless-steel impact mortar under liquid nitrogen and homogenised (20% w/v) in buffer (10 mM Tris, pH 7.4, 1.5 mM EDTA, 10% glycerol, 10 mM monothioglycerol, and 10 mM sodium molybdate) on ice. Centrifugation (50 000 g) for 1 h yielded cytosol, which was adjusted with buffer to 2.5 mg protein ml^−1. All incubations were carried out in triplicate, each containing 100 μl of cytosol, 20 μl of 10 nM 6,7-[^3H]oestradiol (6,7-[^3H]E2), and 80 μl of antagonist. After incubation overnight at 4°C, tubes received 300 μl of dextran-coated charcoal suspension; tubes were agitated for 15 min, and then centrifuged (1000 g) for 15 min.
Rabbit uterine cytosol was used as a source of ER. Test agents (80 μl) at the final concentrations indicated were incubated in triplicate with 100 μl of cytosol, and 20 μl of 10 nM 6,7-[^3H]E2 (50 Ci mmol^−1). The concentration of the [^3H]E2 complex with receptor in the presence of the test agent is expressed as a percentage of the amount of complex formed in the absence of test agent.

[6] = tested on: phosphorylation of ER at serine 118; conditions: cited from earlier work
Text: Mechanistically, AFPep is quite different from Tam. […] In fact, in this study and ...

[7] = tested on: breast cancer; conditions: cited from earlier work
[8] = tested on: MNU-induced breast cancers in rats; test: Prevention of MNU-induced mammary cancers in rats; conditions: for Inhibition of tumour formation (in words): Tam 6.25 μg animal^−1 day^−1 or higher, AFPep 270 μg animal^−1 day^−1; for Incidence (percent of rats with one or more tumours when killed, approximately 120 days after MNU): 20 days from 10 days after MNU 50 mg kg^−1, n=30 rats, control 78%; for Volume (sum of the volumes of tumours in each group) / Multiplicity (total number of tumours/number of rats) / Latency (mean number of tumour-free days±s.d.): 20 days; for Volume (sum of the volumes of tumours in each group): control 69.0; for Multiplicity (total number of tumours/number of rats): control 2.1; for Latency (mean number of tumour-free days±s.d.): control 80±31
Method: Female rats were housed three per cage in a room maintained at 22±1°C, and artificially lighted for 12 h per day. At 50 days of age, rats received a single injection of MNU (50 mg kg^−1 body weight) or vehicle in the jugular vein. N-methyl-N-nitrosourea was administered to animals in the various treatment groups according to a predetermined randomisation chart, so as to ensure uniform distribution of the carcinogen across the groups. […] A control group of animals received daily 0.2 ml s.c. injections of saline for the same time period as AFPep administration and experienced the maximal number of tumours. Starting 30 days after MNU treatment, all rats were palpated weekly for detection of mammary tumours, noting number, location, and size. Tumour burden was determined noninvasively using calipers to measure the long (D) and short (d) diameter of each tumour. Assuming that tumours were ellipsoid shaped, tumour volume was estimated as (0.52d^2D). Cage activity of all animals was monitored daily for gross signs of toxicity. At necropsy, body weight and organ weights were assessed as indicators of toxicity.
Sprague–Dawley female rats (n=30 rats group^−1) received MNU (50 mg kg^−1) at the age of 50 days. […] Animals were palpated weekly. The incidence of tumours is shown as a function of time after carcinogen treatment.

[9] = effective single-agent dose: AFPep 10 μg mouse^−1 day^−1 i.p. or Tam 1 μg mouse^−1 day^−1 p.o., over a 30-day period
[10] = suboptimal dose: AFPep 0.1 μg i.p., Tam 0.05 μg p.o. per mouse per day, single agents
[11] = higher dose: AFPep 270 or Tam 6.25 μg/rat/day
[12] = suboptimal dose: AFPep 100, Tam 0.05, or both (100+0.05) μg/rat/day
[13] = higher dose: AFPep 270 μg/rat/day s.c. or Tam 6.25 μg/rat/day oral gavage
[14] = higher dose: AFPep 270 (marked * P<0.05 vs control) or Tam 6.25 μg/rat/day
[15] = suboptimal dose: AFPep 100 μg/rat/day s.c., Tam 0.05 μg/rat/day oral gavage, or both (100+0.05)
[16] = suboptimal dose: AFPep 100, Tam 0.05, or both (100+0.05) μg/rat/day, AFPep and AFPep+Tam marked * P<0.05 vs control
[17] = higher dose: AFPep 270 μg/rat/day

Row | Compound | Inhibition of basal (no E2) growth of T47D cells (in words) [1] | Inhibition of E2-stimulated growth of T47D cells, single agent (in words) [1] | Growth of MCF-7 tumour xenografts (in words) [2, 9] | Growth of MCF-7 tumour xenografts (in words) [2, 10] | Body weight [3, 11] [g] | Uterine weight [3, 12] [g] | Heart weight [3, 12] [g] | Body weight [3, 12] [g] | Growth of immature mouse uterus (in words) [4] | Inhibition of binding of [^3H]E2 to ER (in words) [5] | Inhibition of tumour formation (in words) [8] | Incidence (percent of rats with one or more tumours when killed, approximately 120 days after MNU) [8, 13] [%] | Volume (sum of the volumes of tumours in each group) [8, 14] | Multiplicity (total number of tumours/number of rats) [8, 11] [tumours/rat] | Latency (mean number of tumour-free days±s.d.) [8, 11] [days] | Incidence (percent of rats with one or more tumours when killed, approximately 120 days after MNU) [8, 15] [%] | Volume (sum of the volumes of tumours in each group) [8, 16] | Multiplicity (total number of tumours/number of rats) [8, 12] [tumours/rat] | Latency (mean number of tumour-free days±s.d.) [8, 12] [days] | also measured
1 | CC/C(=C(\c1ccccc1)c1ccc(OCCN(C)C)cc1)c1ccccc1 [Tam, Tamoxifen, reference compound] | neither Tam nor AFPep inhibited the basal (no E2) growth | inhibited the E2-stimulated growth | completely prevented the growth of MCF-7 tumour xenografts | tumour growth occurred, although it was less than tumour growth in nontreated mice | 273 ± 28 | 0.49 ± 0.17 | 1.12 ± 0.13 | 282 ± 31 | stimulates the growth of immature mouse uterus | concentration-dependent inhibition of E2 binding | significant inhibition of tumour formation | 26 | 70.2 cm^3 | 0.5 | 85 ± 15 | 73 | 62.4 cm^3 | 1.3 | 95 ± 36 | Effect on uterine growth (in words) ([3]; rats, low doses, whether or not AFPep was present): no effect on uterine growth; Stimulation of phosphorylation of ER at serine 118 (in words) ([6]; following binding to receptor, ref Chen et al, 2002): stimulates phosphorylation of ER at serine 118; Risk of primary breast cancers (in words) ([7]; high-risk patients, ref Fisher et al, 1998): decrease the risk of primary breast cancers in high-risk patients; Breast cancer recurrences (in words) ([7]; ref Early Breast Cancer Trialists' Collaborative Group, 1992): inhibit breast cancer recurrences
2 | cyclo(EKTOVNOGN) (head to tail) [AFPep] | neither Tam nor AFPep inhibited the basal (no E2) growth | inhibited the E2-stimulated growth | completely prevented the growth of MCF-7 tumour xenografts | tumour growth occurred, although it was less than tumour growth in nontreated mice | 280 ± 29 | 0.52 ± 0.15 | 1.12 ± 0.14 | 285 ± 24 | does not stimulate uterine growth | did not inhibit the binding of [^3H]E2 to ER | significant inhibition of tumour formation | 40 | 34.5^* cm^3 | 0.5 | 88 ± 16 | 63 | 39.1^* cm^3 | 1.1 | 97 ± 33 | Uterine weight [3, 17]: 0.62 ± 0.17 g; Heart weight [3, 17]: 1.09 ± 0.13 g; Effect on body weight, fur texture, cage activity, organ weights (in words) ([3]; rats, therapeutic doses for 2–3 weeks): no effect on body weight, fur texture, or cage activity during the lifespan of the animals, or on organ weights obtained at necropsy; Tam-induced growth of immature mouse uterus (in words) ([4]; AFPep 10 μg i.p. 1 h before Tam 1 μg i.p., Figure 4 * P<0.05 vs Tam alone, Dunnett's test): significantly inhibits the Tam-induced growth of the immature mouse uterus; Stimulation of phosphorylation of ER at serine 118 (in words) ([6]; ref Bennett et al, 2006): did not stimulate phosphorylation of ER at serine 118; Inhibition of phosphorylation of ER following ligand binding (in words) ([6]; stated in Discussion as function of AFPep, not measured in this paper): inhibit the phosphorylation of ER that follows ligand binding to ER
